Laboratory results published in patent publication US20240294588A1, “C2 Domain Therapeutics and Uses Thereof” (University of Maryland, Baltimore, priority 2021, published 2024).
“Also recorded” adds a separate entry of the source. Read-outs that look alike come from different tables or passages of the source.

Assays:
[1] = tested on: dysferlin-null A/J myofibers; experiment: Distribution of Venus-tagged constructs (triad junctions vs Z-disks) in transfected myofibers; format: cell-based, mouse; settings: FIG. 6
Excerpt: (§1) FIGS. 2A-2E show the DYSF-C2A distribution and partial protection against loss of Ca^2+ transient and development of Ca^2+ waves after OSI. The construct in FIG. 2A was electroporated into Flexor digitorum brevis (FDB) muscles of dysferlin-null A/J mice and imaged 10 d later. […] Distribution of the Venus construct is indicated to the right. Recovery is partial (in the upper region of fiber). FIG. 2D quantitates results from several dozen fibers of each type. […] Higher levels of expression show more consistent recoveries and suppression of waves than lower levels.
The constructs in FIG. 4A were electroporated and visualized as in FIG. 2. […] Recovery is complete. FIG. 4D quantitates results from several dozen fibers transfected with each construct. […] Note the high level of Ca release and low frequency of waves indicated by the y-intercepts at low transfection levels.
A Venus-tagged version of the C2 domain of PKCα was expressed in both control (C57Bl/6) (FIG. 12A) and dysferlin-null (A/J) myofibers (FIG. 12B) and the transfected fibers were imaged. […] They help to explain the ability of the chimeric constructs containing Ven-C2-PKCα to potentiate the beneficial effects of the DYSF-C2A domain.

[2] = tested on: dysferlin-null A/J myofibers; experiment: Ca2+ signaling: voltage-induced Ca2+ transients (Rhod-2) and Ca2+ waves before and after osmotic shock injury (OSI) in electroporated FDB myofibers; format: cell-based, mouse; settings: for Effect on amplitude of Ca2+ transients: A/J fibers, FIG. 8; for Ca2+ signaling activity (restoring/protecting amplitude of the Ca2+ transient after OSI): construct electroporated into dysferlin-null A/J FDB fibers, Rhod-2, before and 5 min after OSI; for Ca2+ wave frequency / suppression of Ca2+ waves after OSI: construct expressed in A/J fibers; for y-intercept for Ca transient (normalized Ca release vs amount of Venus construct in each fiber) / y-intercept for wave frequency (Ca wave frequency vs amount of Venus construct in each fiber): intercept at low expression level, FIG. 2E / FIG. 4E
Excerpt: as §1
To assay Ca^2+ transients, Rhod-2 was added to myofibers as the Rhod2-AM derivative at a concentration of 4.4 μM, or almost 500× higher than the concentration of BAPTA-AM that effectively restores the WT phenotype. Rhod-2 is essentially rhodamine on a BAPTA backbone, so its mode of binding Ca^2+ is identical to that of BAPTA. Rhod-2 has a (calculated) Stokes' radius ˜20% larger than BAPTA; it has a lower affinity for Ca^2+ and its solubility in DMSO is ˜20× lower than BAPTA's. Rhod-2 appears to distribute uniformly in the myoplasm under these conditions of loading.

cultured myofibers = experiment: Accumulation of chelator in treated myofibers, estimated with fluorescent variant Fluo4-AM; format: cell-based; settings: 10 nM extracellular concentration
Description: This concentration of BAPTA in myofibers is sufficient to restore elevated myoplasmic [Ca^2+ ] of 150-200 nM to levels close to WT levels of ˜100 nM. This can explain why as little as 10 nM BAPTA-AM can restore the WT phenotype.

dysferlin and PKCα = experiment: Colocalization and co-immunoprecipitation of dysferlin and PKCα; format: cell-based
[3] = tested on: dysferlin-null A/J myofibers; settings: dysferlin-null fibers, background / known results, cited from earlier work
FDB muscles of A/J mice [4] = experiment: Membrane repair after infrared laser injury in the presence of FM4-64 dye; format: cell-based, mouse; settings: A/J FDB muscle, FM4-64 fluorescence, area under curve
Excerpt: FIGS. 3A-3B show the membrane repair by the DYSF-C2A domain. FDB muscles of A/J mice were electroporated with expression plasmids for WT DYSF or DYSF-C2A. 7d later muscles were removed and injured by infrared laser illumination in the presence of FM4-64 lipophilic dye. […] Means±SEM, n=7, *p<0.01 by ANOVA followed with Tukey's post-hoc test.

Solubility in DMSO = format: physicochemical
FDB muscles of A/J mice [5] = settings: dysferlin-null fibers, background / known results; cited from earlier work

2 C2-PKCα domains with a single DYSF-C2A domain: construct that contains 2 C2-PKCα domains with a single DYSF-C2A domain; SEQ ID NO: 13
Transfected fibers with construct targeted to / concentrated at TJs [1]: 75%

CC(=O)OCOC(=O)CN(CC(=O)OCOC(C)=O)c1ccccc1OCCOc1ccccc1N(CC(=O)OCOC(C)=O)CC(=O)OCOC(C)=O [BAPTA-AM, reference compound]
Restoration of WT phenotype (Ca2+ transient before and after OSI, Ca2+ waves) ([2]; 10 nM added to cultured A/J myofibers): effectively restores A/J myofibers to the WT phenotype

CC(=O)OCOC(=O)CN(CC(=O)OCOC(C)=O)c1ccc(C)cc1OCCOc1cc(-c2c3cc(F)c(=O)cc-3oc3cc(OCOC(C)=O)c(F)cc23)ccc1N(CC(=O)OCOC(C)=O)CC(=O)OCOC(C)=O [Fluo4-AM]
Intracellular vs extracellular concentration (cultured myofibers): 7-10 fold

CCCCCCCCCCCCCC(=O)O[C@@H]1[C@@H](C)[C@@]2(O)[C@@H](C=C(CO)C[C@]3(O)C(=O)C(C)=C[C@@H]23)[C@@H]2C(C)(C)[C@]12OC(C)=O [PMA, phorbol 12-myristate 13-acetate, reference compound]
Effect on amplitude of Ca2+ transients [2]: significantly alter the amplitude of the Ca^2+ transients | Effect on colocalization of dysferlin and PKCα in myofibers and on co-IP from HEK cells (dysferlin and PKCα): neither phorbol 12-myristate 13-acetate (PMA) nor staurosporine, drugs that activate and inhibit PKCα, respectively, have any effect

O=C1CN(/N=C/c2ccc(-c3ccc([N+](=O)[O-])cc3)o2)C(O)=N1 [dantrolene]
Ca2+ signaling (Ca2+ transient amplitude, loss after OSI, waves), earlier studies [3]: prevented these changes

COc1ccc([C@@H]2Sc3ccccc3N(CCN(C)C)C(=O)[C@@H]2OC(C)=O)cc1 [diltiazem]
Ca2+ signaling (Ca2+ transient amplitude, loss after OSI, waves), earlier studies [3]: prevented these changes

CN[C@@H]1C[C@H]2O[C@@](C)([C@@H]1OC)n1c3ccccc3c3c4c(c5c6ccccc6n2c5c31)C(=O)NC4 [staurosporine, reference compound]
Effect on amplitude of Ca2+ transients [2]: significantly alter the amplitude of the Ca^2+ transients

A84V: full length dysferlin with polymorphism A84V in C2A [reference compound]
Ca2+ signaling activity (restoring/protecting amplitude of the Ca2+ transient after OSI) [2]: left dysferlin's Ca^2+ signaling activity intact

C2 domain of PKCα: isolated C2 domain of PKCα (XP_024306597.1, residues 71-229), tagged with a Venus moiety
Ca2+ signaling activity (restoring/protecting amplitude of the Ca2+ transient after OSI) [2]: completely without activity | Ca2+ signaling activity (restoring/protecting amplitude of the Ca2+ transient after OSI) ([2]; listed as PKCα-C2): failed to replicate the effects of DYSF-C2A | Ca2+ signaling activity (restoring/protecting amplitude of the Ca2+ transient after OSI) ([2]; listed as PKCα-C2 domain): inactive | Membrane repair activity (FDB muscles of A/J mice [4]): inactive

C2-PKCα-DYSF-C2A: chimeric construct with C2-PKCα just N-terminal to DYSF-C2A, tagged with Venus; SEQ ID NO: 11
Ca2+ signaling activity (restoring/protecting amplitude of the Ca2+ transient after OSI) [2]: results identical to WT DYSF; also recorded: indistinguishable from WT DYSF in restoring the amplitude of the Ca^2+ transient | Ca2+ wave frequency / suppression of Ca2+ waves after OSI [2]: almost as effective in suppressing Ca^2+ waves | y-intercept for Ca transient (normalized Ca release vs amount of Venus construct in each fiber) [2]: 3.7 | y-intercept for wave frequency (Ca wave frequency vs amount of Venus construct in each fiber) [2]: 0.11 | Membrane repair activity (FDB muscles of A/J mice [4]): improved repair as well as WT DYSF; also recorded: just as effective as WT DYSF in supporting membrane repair | Transfected fibers with construct targeted to / concentrated at TJs [1]: ~25%

DYSF-C2A: C2A domain of dysferlin (AF075575.1, amino acids 1-100) expressed on its own as a Venus fusion protein; SEQ ID NO: 4
Ca2+ signaling activity (restoring/protecting amplitude of the Ca2+ transient after OSI) [2]: intermediate between Venus (negative control) and WT DYSF (positive control) controls; also recorded: partially restored some Ca^2+ signaling activity | Ca2+ wave frequency / suppression of Ca2+ waves after OSI [2]: low frequency of Ca^2+ waves, only slightly more than with WT DYSF | y-intercept for Ca transient (normalized Ca release vs amount of Venus construct in each fiber) [2]: 0.47 | y-intercept for wave frequency (Ca wave frequency vs amount of Venus construct in each fiber) [2]: 0.37 | Membrane repair activity (FDB muscles of A/J mice [4]): improved repair as well as WT DYSF; also recorded: fully stabilized membrane repair activity

Rhod-2
Solubility in DMSO relative to BAPTA (Solubility in DMSO): ~20 × lower

V67D: full length dysferlin with pathogenic mutation V67D in C2A [reference compound]
Ca2+ signaling activity (restoring/protecting amplitude of the Ca2+ transient after OSI) [2]: inactivated full length dysferlin

V68L: full length dysferlin with polymorphism V68L in C2A [reference compound]
Ca2+ signaling activity (restoring/protecting amplitude of the Ca2+ transient after OSI) [2]: left dysferlin's Ca^2+ signaling activity intact

W52R: full length dysferlin with pathogenic mutation W52R in C2A [reference compound]
Ca2+ signaling activity (restoring/protecting amplitude of the Ca2+ transient after OSI) [2]: inactivated full length dysferlin

WT dysferlin: wild type full length dysferlin introduced by electroporation, positive control
Ca2+ signaling (Ca2+ transient amplitude, loss after OSI, waves), earlier studies [3]: restores full activity | Ca2+ signaling (Ca2+ transient amplitude, loss after OSI, waves), earlier studies ([3]; listed as wild type dysferlin): restores the amplitude of Ca^2+ transients to WT levels | Membrane repair, earlier studies (FDB muscles of A/J mice [5]): restores full activity
